This assay has as its system HBG1 mRNA and HbF protein in bone marrow cells. Briefly: Induction of fetal hemoglobin by hydroxyurea and I-73 in human CD34+ cell reconstituted immunodeficient mice, with analysis of synergistic effect. The format is in vivo, NBSGW mice engrafted with human CD34+ cells. The protocol: The model employed for assessment of induction of fetal hemoglobin by I-73 and hydroxyurea involved the use of human stem cell-reconstituted immunodeficient mice. Specifically, three hundred thousand human CD34-positive cells from G-CSF-mobilized human peripheral blood […] (PBMCs) were injected into the tail veins of NOD.Cg-KitW-41J Tyr+Prkdcscid Il2rgtm1Wjl/ThomJ (NBSGW) mice (JAX Strain No. 026622) on day 0. Twelve weeks later, mice were checked for human cell engraftment by sampling PBMCs from blood taken from the tail vein and staining for expression of murine or human CD45 by flow cytometry. After removing from the study those mice having greater than 10% human cells or less than 1% human cells in their peripheral blood, the remaining mice were randomized into treatment groups based on the human cell percentage. Thirteen weeks post engraftment, treatment was initiated with either hydroxyurea, I-73, or a combination of both compounds. Hydroxyurea was formulated in PBS (pH 7.4) and I-73 was formulated in 5% Cremophor RH 40/20% hydroxypropyl-β-cyclodextrin (Crem-CD) daily. Mice received either PBS or hydroxyurea each morning and I-73 or Crem-CD each afternoon by oral gavage. After twenty days of daily treatment, the mice were euthanized and their bone marrow (femurs, tibia and critae) were individually collected for subsequent analysis.
Bone marrow cell pellets (total 500K cells) were lysed in 20 μL of RLT (QIAGEN, 79216) with 1×β-mercaptoethanol (Gibco, 21985-023) and H2O followed by hybridizations. Hybridizations were done in a total volume of 15 μL [3 μL of RNA lysate added to master mix of 12 μL probe A/B (purchased from IDT), capture probe/reporter probes (NanoString™, XT TagSet-24, 121000602), proteinase K (Fisher Scientific, E00491) and H2O suspended in hybridization buffer]. Samples were hybridized at 65° C. for 22 hr. Following hybridization, the tripartide complexes were purified, immobilized by nCounter Prep Station and imaged by Digital Analyzer (nCounter MAX/FLEX Analysis System), to generate digital counts of barcodes corresponding to each target in the multiplexed reaction. Labeled barcodes obtained from unamplified extracts were counted at 555 images or field of view (FOV). The barcode counts for each sample were recorded in Reporter Code Count (RCC) files that are imported into nSolver analysis software (provided with CodeSet by NS) for quality control evaluation.
To assess levels of fetal hemoglobin by AlphaLISA, cells (200 k bone marrow cells/well) were lysed by resuspending pellets in 200 μL of lysis buffer plus protease inhibitor cocktail (100×), mixed well and incubating at room temperature for 30 minutes on the plate shaker @300 RPMs. Samples were then diluted 1:10 in a new 96-well round bottom plate by taking 10 uL of lysate and adding 90 μL of AlphaLISA immunoassay buffer. To create the “reaction plate”, 20 μL of Acceptor Beads (50 ug/mL final concentration) was added to each well using a multi-channel pipet. 10 uL of diluted cell lysate was added to the wells and mixed well. 20 μL of AlphaLISA immunoassay buffer was added to each well. Biotinylated antibody (final concentration) was then added to each well. The reaction plate on then placed on a plate shaker at 300 rpm for one hour to incubate at room temperature. After the first incubation was complete, 50 μL of Donor Beads ([…] final concentration) was added to each well and mixed well, keeping the plate in the dark. The covered plate was placed on a shaker at 350 rpm for 30 minutes to incubate at room temperature. After incubation, all 100 uL in each to an AlphaPlate in the dark. Plates were read on a VictorNIVO using the “Alpha 96 Well” setting. Alpha reading was programmed as the default setting with emission at 700 ms and 575/110n. […]

As to `CCN1C(=O)[C@@H](NC(=O)c2cccc(C(F)(F)F)c2)[C@@H](c2ccc(F)cc2)c2c([C@@H](C)NC#N)nn(-c3ccccc3)c21` [Compound I-73, N-((4S,5S)-3-((R)-1-cyanamidoethyl)-7-ethyl-4-(4-fluorophenyl)-6-oxo-1-phenyl-4,5,6,7-tetrahydro-1H-pyrazolo[3,4-b]pyridin-5-yl)-3-(trifluoromethyl)benzamide], the “average increase of HbF % over vehicle” value (I-73 25 mg/kg alone, WLS ANOVA estimate) is given as 1.11. In addition, the “percentage of HbF protein by HPLC in GlyA-positive bone marrow cells” value (compared with vehicle treatment group, FIG. 7) was “significant increase”. Moreover, where the note is “in vivo”, the “percentage of bone marrow cells expressing human CD45” value is recorded as “did not alter”. Besides, the “HbF level on a per erythroid progenitor (GlyA-positive) cell basis by AlphaLISA” value (treatment alone) is reported as “induced increased levels of HbF”.
